Data: patent US12371428B2 (Exelixis, Inc., priority 2019, dated 2025)
Structures can show the parent of a compound that is named as a salt. Where two headings read alike, the source gives them in different places.

Assays:
[1] = biological target: KDR (phospho-KDR, VEGF165-stimulated HUVEC cells) (Homo sapiens (Human), UniProt P35968); experiment: KDR autophosphorylation ELISA in HUVEC cells (Example G); format: cell-based; details: cellular activity; KDR autophosphorylation ELISA in HUVEC cells
How it was run: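 Cells seeded, grown 24 h at 37 °C, starved 24 h serum-free; cpd 8-pt curve, 0.3% DMSO, 1 h; VEGF165 100 ng/mL, 5 min; cold PBS wash, lysis with orthovanadate and protease/phosphatase inhibitors; pKDR ELISA; IC50 by 4-parameter logistic regression.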

[2] = biological target: Met (phospho-Met, HGF-stimulated PC-3 prostate cancer cells) (Homo sapiens (Human), UniProt P08581); experiment: Met autophosphorylation ELISA in PC-3 cells (Example F); format: cell-based; details: cellular activity; Met autophosphorylation ELISA in PC-3 cells; read-out: c-Met IC50
How it was run: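 IC50 values derive from a 4-parameter logistic fit of phospho-Met (panTyr) sandwich ELISA signals in PC-3 lysates, scaled between DMSO and reference-inhibitor wells. Cells, starved 3 h in serum-free medium, had 1 h compound exposure (8 doses, 0.3% DMSO) before 10 min stimulation with 100 ng/mL HGF.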

[3] = biological target: Mer (phospho-Mer, MERTK-transfected 293A cells) (Homo sapiens (Human), UniProt Q12866); experiment: Mer autophosphorylation ELISA in transient transfected 293A cells (Example H); format: cell-based; details: cellular activity; Mer autophosphorylation ELISA in transient transfected 293A cells
How it was run: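 293A cells transiently transfected with human MERTK were treated 1 h in serum-free medium with an 8-point compound dilution (0.3% DMSO final). Lysates were assayed by phospho-Mer sandwich ELISA against a phospho-Mer standard; IC50 came from a 4-parameter logistic fit, normalised to DMSO (100%) and reference-inhibitor (0%) controls.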

[4] = biological target: Human MET (residues 956-1390) (Homo sapiens (Human), UniProt P08581); experiment: Human Met kinase assay, HTRF KinEase (Example D-2); format: biochemical; details: read-out: c-Met IC50
Description: (§1) Kinase activity and compound inhibition were also investigated using the HTRF® KinEase assay (Cisbio Cat #62TKOPEB) per manufacturer's instructions. In short, compounds were delivered in 300 nL volumes at 10 different concentrations in DMSO (3% final) to empty 384-well assay plates (Corning cat #3824). A mixture of enzyme, […] biotynlated peptide substrate, and buffer in 10 μL volume was added. The assay was started upon the addition of ATP (at Km). The 10 μL reaction was incubated at room temperature. The reaction was stopped upon the addition of detection buffer containing streptavidin-XL665 ([…]) and TK antibody-Eu3+([…]). After a 60 min incubation at room temperature, the fluorescence at 665 nm and 620 nm was read on an Envision microplate reader (Perkin Elmer).
(§2) Kinase activity normalized to DMSO (100% activity) and reference compound at […] and (0% activity) was calculated using the fluorescence ratio […]. IC50 values were calculated by nonlinear regression analysis using a 4-parameter logistic curve fit in ActivityBase XE (IDBS).
Example D-2: Human MET (residues 956-1390; CarnaBio, 0.1 ng/well) was also incubated with enzymatic buffer (Cisbio) supplemented with 5 mM MgCl2, 1 mM DTT and 1 mM MnCl2. The mixture was added to the pre-plated compounds. […] The reaction was incubated at room temperature for 40 min and stopped upon the addition of SA-XL665 and TK-antibody both diluted in EDTA-containing kinase detection buffer (Cisbio). The kinase activity was calculated as stated above and the IC50 values were reported.

[5] = biological target: Human MER (residues 528-999) (Homo sapiens (Human), UniProt Q12866); experiment: Human Mer kinase assay, HTRF KinEase (Example C-2); format: biochemical
Description: as §1, §2
Example C-2: Human MER (residues 528-999; CarnaBio, 1 ng/well) was also incubated with enzymatic buffer (Cisbio) supplemented with 5 mM MgCl2 and 1 mM DTT. The mixture was added to the pre-plated compounds. The reaction was initiated upon addition of ATP at Km (40 μM). The reaction was incubated at room temperature for 60 min and stopped upon the addition of SA-XL665 and TK-antibody both diluted in EDTA-containing kinase detection buffer (Cisbio). The kinase activity was calculated as stated above and the IC50 values were reported.

[6] = protocol of Example D-2 (other compounds)

Sequence of Human MET (residues 956-1390) (P08581 956-1390): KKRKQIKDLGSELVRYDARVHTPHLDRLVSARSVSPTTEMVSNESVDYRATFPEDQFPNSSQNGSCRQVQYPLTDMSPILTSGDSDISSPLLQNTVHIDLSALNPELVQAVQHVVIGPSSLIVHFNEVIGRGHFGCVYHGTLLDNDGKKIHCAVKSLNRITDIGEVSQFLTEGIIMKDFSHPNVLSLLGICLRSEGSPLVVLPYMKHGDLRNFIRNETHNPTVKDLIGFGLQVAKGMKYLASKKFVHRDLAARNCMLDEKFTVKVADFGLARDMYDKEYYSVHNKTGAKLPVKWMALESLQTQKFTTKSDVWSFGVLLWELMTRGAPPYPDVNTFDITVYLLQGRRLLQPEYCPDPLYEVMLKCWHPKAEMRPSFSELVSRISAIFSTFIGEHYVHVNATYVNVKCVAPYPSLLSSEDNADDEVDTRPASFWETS
Sequence of Mer (phospho-Mer, MERTK-transfected 293A cells) (Q12866 21-999): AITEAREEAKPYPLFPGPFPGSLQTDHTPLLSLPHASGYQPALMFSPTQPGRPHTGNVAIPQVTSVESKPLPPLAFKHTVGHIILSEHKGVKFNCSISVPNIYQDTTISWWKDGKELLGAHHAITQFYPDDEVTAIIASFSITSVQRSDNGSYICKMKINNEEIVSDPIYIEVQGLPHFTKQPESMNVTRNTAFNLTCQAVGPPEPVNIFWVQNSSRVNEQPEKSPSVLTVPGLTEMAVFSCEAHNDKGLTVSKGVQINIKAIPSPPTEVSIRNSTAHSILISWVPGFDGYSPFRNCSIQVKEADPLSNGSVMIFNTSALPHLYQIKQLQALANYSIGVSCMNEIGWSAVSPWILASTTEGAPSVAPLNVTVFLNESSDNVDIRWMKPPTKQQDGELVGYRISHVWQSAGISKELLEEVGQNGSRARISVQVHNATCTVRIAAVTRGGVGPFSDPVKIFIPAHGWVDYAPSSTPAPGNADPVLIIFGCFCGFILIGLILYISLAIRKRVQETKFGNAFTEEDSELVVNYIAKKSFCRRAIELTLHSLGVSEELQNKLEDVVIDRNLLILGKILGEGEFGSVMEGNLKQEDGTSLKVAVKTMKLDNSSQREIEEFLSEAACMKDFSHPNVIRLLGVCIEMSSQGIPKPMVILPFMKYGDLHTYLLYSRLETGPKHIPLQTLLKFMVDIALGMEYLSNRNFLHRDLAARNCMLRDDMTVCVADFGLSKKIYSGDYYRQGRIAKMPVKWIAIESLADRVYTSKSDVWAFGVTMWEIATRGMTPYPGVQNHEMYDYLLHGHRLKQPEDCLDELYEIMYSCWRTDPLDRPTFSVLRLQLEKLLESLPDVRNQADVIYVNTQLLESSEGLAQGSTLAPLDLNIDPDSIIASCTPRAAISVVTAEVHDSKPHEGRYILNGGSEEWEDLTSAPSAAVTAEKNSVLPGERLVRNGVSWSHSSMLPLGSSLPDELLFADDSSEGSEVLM
Sequence of Human MER (residues 528-999) (Q12866 528-999): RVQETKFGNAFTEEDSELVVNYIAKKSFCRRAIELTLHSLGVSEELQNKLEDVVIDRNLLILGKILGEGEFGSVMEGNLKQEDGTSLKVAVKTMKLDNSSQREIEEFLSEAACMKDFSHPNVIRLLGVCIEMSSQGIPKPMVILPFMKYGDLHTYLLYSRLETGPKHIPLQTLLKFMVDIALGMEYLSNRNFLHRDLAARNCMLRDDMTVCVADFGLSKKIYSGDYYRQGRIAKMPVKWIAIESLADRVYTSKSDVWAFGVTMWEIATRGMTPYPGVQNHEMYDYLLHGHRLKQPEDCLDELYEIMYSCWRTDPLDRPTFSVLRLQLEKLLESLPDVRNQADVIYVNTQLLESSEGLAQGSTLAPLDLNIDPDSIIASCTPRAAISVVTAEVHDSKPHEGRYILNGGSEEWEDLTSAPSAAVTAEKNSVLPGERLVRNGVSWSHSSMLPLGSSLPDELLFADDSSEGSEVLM
Sequence of Met (phospho-Met, HGF-stimulated PC-3 prostate cancer cells) (P08581 25-1390): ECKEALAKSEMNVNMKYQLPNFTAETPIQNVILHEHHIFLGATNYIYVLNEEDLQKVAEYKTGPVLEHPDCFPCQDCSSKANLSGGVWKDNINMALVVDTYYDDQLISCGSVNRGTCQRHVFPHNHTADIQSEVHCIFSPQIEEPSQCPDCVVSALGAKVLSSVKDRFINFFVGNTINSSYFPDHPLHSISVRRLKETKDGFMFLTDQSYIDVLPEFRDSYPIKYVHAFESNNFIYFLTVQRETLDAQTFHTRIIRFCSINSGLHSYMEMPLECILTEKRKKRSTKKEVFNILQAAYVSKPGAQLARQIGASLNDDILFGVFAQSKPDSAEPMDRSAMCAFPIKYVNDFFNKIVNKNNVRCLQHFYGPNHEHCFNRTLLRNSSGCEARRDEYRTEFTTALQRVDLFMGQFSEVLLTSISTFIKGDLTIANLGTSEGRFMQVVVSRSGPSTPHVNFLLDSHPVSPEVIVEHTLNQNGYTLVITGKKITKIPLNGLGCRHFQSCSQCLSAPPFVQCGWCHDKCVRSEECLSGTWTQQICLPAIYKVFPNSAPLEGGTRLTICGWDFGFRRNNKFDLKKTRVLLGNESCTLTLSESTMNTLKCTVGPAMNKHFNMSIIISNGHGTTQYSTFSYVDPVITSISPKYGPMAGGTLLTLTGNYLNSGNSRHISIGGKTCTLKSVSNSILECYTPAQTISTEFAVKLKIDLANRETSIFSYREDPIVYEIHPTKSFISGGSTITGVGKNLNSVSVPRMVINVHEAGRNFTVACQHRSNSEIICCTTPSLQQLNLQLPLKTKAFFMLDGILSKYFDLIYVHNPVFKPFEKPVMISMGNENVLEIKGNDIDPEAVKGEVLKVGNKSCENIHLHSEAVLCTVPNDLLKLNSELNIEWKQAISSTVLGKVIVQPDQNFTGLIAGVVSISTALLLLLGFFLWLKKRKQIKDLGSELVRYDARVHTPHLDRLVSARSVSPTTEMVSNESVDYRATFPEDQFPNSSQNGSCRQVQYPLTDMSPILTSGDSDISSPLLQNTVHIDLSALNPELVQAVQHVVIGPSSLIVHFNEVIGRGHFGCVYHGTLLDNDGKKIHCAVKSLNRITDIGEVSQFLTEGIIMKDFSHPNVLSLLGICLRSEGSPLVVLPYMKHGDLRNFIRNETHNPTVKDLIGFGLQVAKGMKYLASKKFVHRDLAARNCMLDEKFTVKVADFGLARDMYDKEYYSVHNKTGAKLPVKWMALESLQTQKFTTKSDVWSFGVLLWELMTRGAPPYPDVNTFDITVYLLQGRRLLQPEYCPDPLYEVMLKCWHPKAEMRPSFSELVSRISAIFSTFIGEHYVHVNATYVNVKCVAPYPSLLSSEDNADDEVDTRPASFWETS
Sequence of KDR (phospho-KDR, VEGF165-stimulated HUVEC cells) (P35968 20-1356): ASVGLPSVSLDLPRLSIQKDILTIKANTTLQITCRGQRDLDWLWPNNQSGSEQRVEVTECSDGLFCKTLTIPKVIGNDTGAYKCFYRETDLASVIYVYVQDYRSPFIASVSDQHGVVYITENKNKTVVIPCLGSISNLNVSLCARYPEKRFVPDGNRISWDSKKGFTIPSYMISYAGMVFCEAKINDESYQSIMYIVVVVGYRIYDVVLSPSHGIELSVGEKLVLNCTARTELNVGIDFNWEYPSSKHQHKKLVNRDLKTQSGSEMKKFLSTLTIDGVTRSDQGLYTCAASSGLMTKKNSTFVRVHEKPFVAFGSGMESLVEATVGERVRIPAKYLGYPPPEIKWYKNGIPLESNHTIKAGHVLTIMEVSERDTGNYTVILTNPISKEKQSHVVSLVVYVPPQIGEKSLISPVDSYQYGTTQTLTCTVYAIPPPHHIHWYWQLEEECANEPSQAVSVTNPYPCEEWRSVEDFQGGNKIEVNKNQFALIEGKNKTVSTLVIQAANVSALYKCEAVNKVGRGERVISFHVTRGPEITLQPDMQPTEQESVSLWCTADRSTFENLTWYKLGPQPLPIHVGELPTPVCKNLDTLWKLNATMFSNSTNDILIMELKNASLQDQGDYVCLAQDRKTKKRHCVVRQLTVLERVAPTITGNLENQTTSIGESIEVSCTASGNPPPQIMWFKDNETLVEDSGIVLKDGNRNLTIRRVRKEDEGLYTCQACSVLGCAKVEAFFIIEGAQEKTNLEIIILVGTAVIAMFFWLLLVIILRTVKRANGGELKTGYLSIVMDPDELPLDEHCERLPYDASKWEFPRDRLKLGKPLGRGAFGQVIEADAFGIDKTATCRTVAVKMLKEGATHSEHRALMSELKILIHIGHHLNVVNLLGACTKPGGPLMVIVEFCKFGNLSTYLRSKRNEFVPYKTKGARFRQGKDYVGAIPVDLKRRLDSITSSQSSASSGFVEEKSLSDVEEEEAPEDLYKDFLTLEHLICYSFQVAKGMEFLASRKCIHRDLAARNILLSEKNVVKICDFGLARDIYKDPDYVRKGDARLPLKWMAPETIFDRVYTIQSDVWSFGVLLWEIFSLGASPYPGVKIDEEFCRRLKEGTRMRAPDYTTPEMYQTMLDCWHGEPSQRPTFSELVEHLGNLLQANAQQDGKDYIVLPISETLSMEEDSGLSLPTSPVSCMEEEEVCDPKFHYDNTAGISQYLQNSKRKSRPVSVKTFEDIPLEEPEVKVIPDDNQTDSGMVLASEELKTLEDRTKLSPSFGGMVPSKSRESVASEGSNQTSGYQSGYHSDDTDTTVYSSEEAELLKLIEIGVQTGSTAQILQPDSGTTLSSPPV

IC50 [1] | IC50 [2] | IC50 [3] | IC50 [4, 6] | IC50 ([5]; protocol of Example C-2) | IC50 ([4]; protocol of Example D-2) | IC50 ([5]; protocol of Example C-2 (other compounds)) | SMILES
> 0.3 µM | < 0.1 µM | < 0.1 µM | < 0.1 µM |  |  |  | COc1cc2nccc(Oc3ccc(NC(=O)c4cn(-c5cnn(C)c5)cc(-c5ccc(F)cc5)c4=O)cc3F)c2nc1OC [Compound 51, N-[4-[(6,7-Dimethoxy-1,5-naphthyridin-4-yl)oxy]-3-fluorophenyl]-5-(4-fluorophenyl)-1-(1-methylpyrazol-4-yl)-4-oxopyridine-3-carboxamide]
< 0.1 µM | < 0.1 µM | < 0.1 µM |  | < 0.1 µM | < 0.1 µM |  | COc1nc2c(Oc3ccc(NC(=O)c4cn(C(C)C)c(C)c(-c5ccc(F)cc5)c4=O)cc3F)ccnc2cc1-c1cnn(C(F)F)c1 [Compound 609, N-[4-[[7-[1-(Difluoromethyl)pyrazol-4-yl]-6-methoxy-1,5-naphthyridin-4-yl]oxy]-3-fluorophenyl]-5-(4-fluorophenyl)-6-methyl-4-oxo-1-propan-2-ylpyridine-3-carboxamide]
< 0.1 µM | < 0.1 µM | < 0.1 µM | < 0.1 µM |  |  |  | COc1cnc2c(Oc3ccc(NC(=O)c4c(C)nc(C)c(-c5ccc(F)cc5)c4O)cc3)ccnc2c1 [Compound 158, 5-(4-Fluorophenyl)-4-hydroxy-N-[4-[(7-methoxy-1,5-naphthyridin-4-yl)oxy]phenyl]-2,6-dimethylpyridine-3-carboxamide]
< 0.1 µM | < 0.1 µM | < 0.1 µM | < 0.1 µM |  |  | < 0.1 µM | COc1cnc2c(Oc3ccc(NC(=O)c4cnc(C)c(-c5ccc(F)cc5)c4O)cc3)ccnc2c1 [Compound 147, 5-(4-Fluorophenyl)-4-hydroxy-N-[4-[(7-methoxy-1,5-naphthyridin-4-yl)oxy]phenyl]-6-methylpyridine-3-carboxamide]
< 0.1 µM | > 0.3 µM | 0.1 to 0.3 µM | < 0.1 µM |  |  |  | COc1cc2nccc(Oc3ccc(NC(=O)c4cn(O)cc(-c5ccc(F)cc5)c4=O)cc3F)c2nc1OC [Compound 134, N-[4-[(6,7-Dimethoxy-1,5-naphthyridin-4-yl)oxy]-3-fluorophenyl]-5-(4-fluorophenyl)-1-hydroxy-4-oxopyridine-3-carboxamide]
0.1 to 0.3 µM | < 0.1 µM | < 0.1 µM |  | < 0.1 µM | < 0.1 µM |  | COc1nc2c(Oc3ccc(NC(=O)c4cn(C(C)C)c(C)c(-c5ccc(F)cc5)c4=O)cc3F)ccnc2cc1-c1cccnc1 [Compound 606, N-[3-Fluoro-4-[(6-methoxy-7-pyridin-3-yl-1,5-naphthyridin-4-yl)oxy]phenyl]-5-(4-fluorophenyl)-6-methyl-4-oxo-1-propan-2-ylpyridine-3-carboxamide hydrochloride]
0.1 to 0.3 µM | < 0.1 µM | < 0.1 µM | < 0.1 µM |  |  |  | COc1cc2nccc(Oc3ccc(NC(=O)c4cn(N=C(N(C)C)N(C)C)cc(-c5ccc(F)cc5)c4=O)cc3F)c2nc1OC [Compound 137, 1-[bis(Dimethylamino)methylideneamino]-N-[4-[(6,7-dimethoxy-1,5-naphthyridin-4-yl)oxy]-3-fluorophenyl]-5-(4-fluorophenyl)-4-oxopyridine-3-carboxamide]
0.1 to 0.3 µM | < 0.1 µM | < 0.1 µM | < 0.1 µM |  |  |  | COc1cc2nccc(Oc3ccc(NC(=O)c4cn(C5CCC5)cc(-c5ccc(F)cc5)c4=O)cc3F)c2nc1OC [Compound 50, 1-Cyclobutyl-N-[4-[(6,7-dimethoxy-1,5-naphthyridin-4-yl)oxy]-3-fluorophenyl]-5-(4-fluorophenyl)-4-oxopyridine-3-carboxamide]
< 0.1 µM | < 0.1 µM | < 0.1 µM |  |  | < 0.1 µM |  | COc1nc2c(Oc3ccc(NC(=O)c4cn(C(C)C)cc(-c5ccc(F)cc5)c4=O)cc3F)ccnc2cc1-c1cnn(C(F)F)c1 [Compound 608, N-[4-[[7-[1-(Difluoromethyl)pyrazol-4-yl]-6-methoxy-1,5-naphthyridin-4-yl]oxy]-3-fluorophenyl]-5-(4-fluorophenyl)-4-oxo-1-propan-2-ylpyridine-3-carboxamide]
> 0.3 µM | 0.1 to 0.3 µM | < 0.1 µM | < 0.1 µM |  |  |  | COc1cc2nccc(Oc3ccc(NC(=O)c4cn(CCn5ccnc5)cc(-c5ccc(F)cc5)c4=O)cc3F)c2nc1OC [Compound 159, N-[4-[(6,7-Dimethoxy-1,5-naphthyridin-4-yl)oxy]-3-fluorophenyl]-5-(4-fluorophenyl)-1-(2-imidazol-1-ylethyl)-4-oxopyridine-3-carboxamide]
 | < 0.1 µM | < 0.1 µM | < 0.1 µM |  |  |  | COc1cnc2c(Oc3ccc(NC(=O)c4cn(C(C)C)cc(-c5ccc(F)cc5)c4=O)cc3)ccnc2c1 [Compound 145, 5-(4-Fluorophenyl)-N-[4-[(7-methoxy-1,5-naphthyridin-4-yl)oxy]phenyl]-4-oxo-1-propan-2-ylpyridine-3-carboxamide]
 |  |  | < 0.1 µM |  |  |  | COc1cc2nccc(Oc3ccc(NC(=O)c4cn(C5CN(C(=O)OC(C)(C)C)C5)cc(-c5ccc(F)cc5)c4=O)cc3F)c2nc1OC [Compound 114, tert-Butyl 3-[3-[[4-[(6,7-dimethoxy-1,5-naphthyridin-4-yl)oxy]-3-fluorophenyl]carbamoyl]-5-(4-fluorophenyl)-4-oxopyridin-1-yl]azetidine-1-carboxylate]
< 0.1 µM | 0.1 to 0.3 µM | < 0.1 µM |  |  | < 0.1 µM |  | CNC(=O)c1cc2c(Oc3ccc(NC(=O)c4cnc(C)c(-c5ccc(F)cc5)c4O)cc3)ccnc2cc1OC [Compound 540, 4-[4-[[5-(4-fluorophenyl)-4-hydroxy-6-methylpyridine-3-carbonyl]amino]phenoxy]-7-methoxy-N-methylquinoline-6-carboxamide]
> 0.3 µM | < 0.1 µM | < 0.1 µM | < 0.1 µM |  |  |  | COc1cc2nccc(Oc3ccc(NC(=O)c4cn(CC(F)(F)F)cc(-c5ccc(F)cc5)c4=O)cc3F)c2nc1OC [Compound 49, N-[4-[(6,7-Dimethoxy-1,5-naphthyridin-4-yl)oxy]-3-fluorophenyl]-5-(4-fluorophenyl)-4-oxo-1-(2,2,2-trifluoroethyl)pyridine-3-carboxamide]
< 0.1 µM | < 0.1 µM | < 0.1 µM |  |  | < 0.1 µM |  | COc1nc2c(Oc3ccc(NC(=O)c4cnc(C)c(-c5ccc(F)cc5)c4O)cc3F)ccnc2cc1-c1cccnc1 [Compound 604, N-[3-Fluoro-4-[(6-methoxy-7-pyridin-3-yl-1,5-naphthyridin-4-yl)oxy]phenyl]-5-(4-fluorophenyl)-4-hydroxy-6-methylpyridine-3-carboxamide hydrochloride]
0.1 to 0.3 µM | 0.1 to 0.3 µM | 0.1 to 0.3 µM | < 0.1 µM |  |  |  | Cc1ncc(C(=O)Nc2ccc(Oc3ccnc4cc(Br)cnc34)c(F)c2)c(O)c1-c1ccc(F)cc1 [Compound 133, N-[4-[(7-Bromo-1,5-naphthyridin-4-yl)oxy]-3-fluorophenyl]-5-(4-fluorophenyl)-4-hydroxy-6-methylpyridine-3-carboxamide]
< 0.1 µM | < 0.1 µM | < 0.1 µM |  |  | < 0.1 µM |  | COc1nc2c(Oc3ccc(NC(=O)c4cnc(C)c(-c5ccc(F)cc5)c4O)cc3F)ccnc2cc1-c1cnn(C(F)F)c1 [Compound 607, N-[4-[[7-[1-(Difluoromethyl)pyrazol-4-yl]-6-methoxy-1,5-naphthyridin-4-yl]oxy]-3-fluorophenyl]-5-(4-fluorophenyl)-4-hydroxy-6-methylpyridine-3-carboxamide]
